Laboratory results: patent publication US11123324B2, “Immunomodulator” (priority 2016, dated 2021)
Entries after “also recorded” stand apart in the source; their conditions may differ.

Key:
[1] = system: B cells (mouse splenic cells); test: In vitro class switching induction assay in mouse splenic cell culture with anti-mouse/rat CD40, isotype antibody titer by ELISA; type: cell-based; details: for IgE induction, secondary screening / IgG1 induction, secondary screening: ELISA; for IgE induction, secondary screening / IgG1 induction, secondary screening / IgA induction, secondary screening: 3.75 μM; for IgA induction, secondary screening: IgA sandwich ELISA, day 10 after addition; for IgE antibody production on day 7 / total IgG antibody production on day 7: Indolactam V 5, 10 μM
Procedure: Under conditions of free access to food and water, 5- to 8-week-old wild-type BALB/cAJcl (purchased from CLEA Japan, Inc.) was euthanized by cervical dislocation under isoflurane anesthesia. 70% Ethanol was sprayed, left abdomen was incised and the spleen was aseptically isolated. The spleen was subjected to a mild crushing treatment with two sterilized glass slides in a culture petri dish containing 5 ml of cell culture medium (RPMI1640 added with 10% FCS, 0.05 μM 2 ME, 80 μg/ml gentamicin) to give a splenic single cell suspension. The cell suspension was placed in a 15 ml tube, stood for 5 min, and the supernatant free of tissue debris was transferred to a new 15 ml tube. A washing operation was performed twice with the above-mentioned cell culture medium to give the number of viable cells. B cells occupy 35% of the viable cells and the number of B cells was obtained by calculation.
Based on the B cell number obtained in Example 1, the splenic cell suspension was diluted with the above-mentioned cell culture medium to 5×10^5/ml B cells, and the cells were added to a 24-well culture dish. The compound and cytokine were added to each well as shown in the results. […]
[…] As for ELISA capture antibody, each isotype antibody (unlabeled, mentioned later) was diluted to 2 μg/ml with 0.05 M Na2CO3 solution, added to ELISA plate (C96 MAXISORP NUNC-Immunoplate, Thermo Scientific) at 50 μl/well, and the plate was coated overnight at 4° C.
The next day, the coated ELISA plate was washed 3 times with 1×PBS. After washing, 1% BSA-added 1×PBS (50 μl) was added to each well and blocking was carried out at room temperature for 1 hr. During the blocking reaction, a dilution series of each culture supernatant was prepared using 1% BSA-added 1×PBS. The diluted sample was added to the plate after blocking at 50 μl/well, and the mixture was reacted at room temperature for 1 hr. Thereafter, a washing operation was performed 3 times with 0.05% Tween 20-added 1×PBS solution. Then, the secondary antibody (alkaline phosphatase-labeled) (0.5 μg/ml) that recognizes each isotype was added at 50 μl/well, and the mixture was reacted at room temperature for 1 hr. A washing operation was performed 3 times with 0.05% Tween 20-added 1×PBS solution, a substrate solution (Phosphatase substrate Sigma 104) was added, the mixture was placed under shading at room temperature to allow for color development, and the absorbance (405 nm) was measured with a plate reader. The antibody titer was shown as a relative absorbance value in a graph, or the absolute value was calculated from comparison with the standard isotype antibody and shown graphically.
In the primary screening, 3,337 kinds of compounds (provided by Drug Discovery Initiative, The University of Tokyo) were subjected to in vitro class switching assay. The final concentration of the compounds was 3.75 μM, and DMSO was added at a final concentration of 0.25% and anti-mouse/rat CD40 was added at a final concentration of 1 μg/ml to all wells including the wells added with cytokine. As a negative control, DMSO and CD40 were added.
In the secondary screening, 22 kinds of the candidate compounds obtained by the primary screening were screened. The culture conditions were the same as those in the primary screening. As the positive control, each isotype control antibody (1 μg/ml) was added. […] Compound No. 2 (Sapintoxin D), No. 12 (PMA) and No. 18 (ROPA) were all protein kinase C (PKC) activators.
From the results of the secondary screening, a substance that specifically induces IgA is a PKC activator and it has a characteristic cyclic structure. As compounds having a similar structure, 17 kinds of compounds (K1-K17) including the above-mentioned 3 kinds were provided by the library of Drug Discovery Initiative, The University of Tokyo. […]

[2] = system: B cells (splenic cells); test: Dose dependency of class switching induction by compound alone (no CD40), isotype ELISA; type: cell-based, mouse; details: 7 days; for IgA production by single stimulation free of CD40: each concentration tested (bryostatin 1 0-50 nM, 0-100 nM; Indolactam V 0-100 μM); for induction of IgE by single stimulation free of CD40 / induction of IgG by single stimulation free of CD40: each concentration tested
Procedure: Indolactam V and bryostatin 1 (Santa Cruz Biotechnology) were purchased, and induction of class switching was performed using splenic cells. To confirm dose dependency of compounds, stimulation was performed at the concentrations shown in FIG. 12, FIG. 13 and FIG. 14. For cell culture, the cells were added to each well of a 6 well plate at 1.0×10^6 B cells/1 ml/well and cultured for 7 days. The cells were cultured without adding anti-mouse/rat CD40 to all wells and the negative control was added with culture medium alone. Stimulation with each cytokine was used as a positive control. The final concentration of each cytokine was 1 μg/ml for anti-mouse/rat CD40, 12.5 ng/ml for IL-4, 20 μg/ml for LPS as in the above-mentioned experiments.
The antibody titer measurement of each isotype by ELISA was performed by a method similar to that mentioned above. As a result, it was confirmed at each concentration tested that IgA was produced and induction of IgG and IgE was not observed by single stimulation with each of bryostatin 1 and Indolactam V free of CD40.

[3] = stated as known / considered, not tested; cited from earlier work
[4] = system: alpha germline transcript; test: RT-PCR confirmation of expression of alpha germline transcript in stimulated splenic cells; type: cell-based, mouse; details: day 3 of stimulation; for expression of alpha germline transcript (RT-PCR): FIG. 11
Procedure: (§1) As evidence that class switching is in progress, the expression of alpha germline transcript and AID was confirmed by RT-PCR. Splenic cells were first stimulated with compound or cytokine under the same conditions as in Example 2. On day 3 of stimulation, floating cells were recovered and total RNA was extracted. cDNA was synthesized using random primers and RT-PCR was performed using the following primers.
(§2) PCR was performed using rTaq (TAKARA) and under the following conditions: […]

[5] = system: AID; test: RT-PCR confirmation of expression of AID in stimulated splenic cells; type: cell-based, mouse; details: day 3 of stimulation; for expression of AID (RT-PCR): FIG. 11
Procedure: as §1, §2

[6] = system: cultured splenic cells; test: Proliferation / cell number of cultured splenic cells under stimulation; type: cell-based, mouse
Procedure: Based on the B cell number obtained in Example 1, the splenic cell suspension was diluted with the above-mentioned cell culture medium to 5×10^5/ml B cells, and the cells were added to a 24-well culture dish. The compound and cytokine were added to each well as shown in the results. DMSO was added such that the concentration of DMSO, which is a solvent of the compound was equivalent in each well (final concentration 0.25%). A mixed culture medium of the compound and splenic cells was subjected to static culture for one week under conditions of 37° C., 5% CO2.
Thus, a substance that has properties as a PKC activator but is free of carcinogenicity was searched for and bryostatin 1 (Santa Cruz Biotechnology sc-201407) was obtained as a candidate (FIGS. 6 and 7). […] Since bryostatin is a substance having a structure completely different from those of the compounds tested in the tertiary screening, those of ordinary skill in the art in consideration of the results of Example 3 and Example 4 readily appreciate that PKC activators in general can be used as substances that induce specific class switching to IgA. In the experiments shown in FIG. 6 and FIG. 7, the final concentration of Indolactam V was 5 μM and 10 μM from the left, and the final concentration of bryostatin 1 was 1 nM, 5 nM, 10 nM from the left.
It was considered to be more than the survival and maintenance of IgA-producing cells originally existed in the spleen. Expression of both transcripts was low when CD40 was not added for bryostatin 1. This may reflect the difference in the amount of cDNA used for RT-PCR.

| Compound | IgE induction, secondary screening ([1]; with CD40) | IgG1 induction, secondary screening ([1]; with CD40) | IgA production by single stimulation free of CD40 [2] | induction of IgE by single stimulation free of CD40 [2] | induction of IgG by single stimulation free of CD40 [2] | carcinogenicity [3] | IgE antibody production on day 7 ([1]; bryostatin 1 1, 5, 10 nM) | total IgG antibody production on day 7 ([1]; bryostatin 1 1, 5, 10 nM) | expression of alpha germline transcript (RT-PCR) [4] | expression of AID (RT-PCR) [5] | other results |
| --- | --- | --- | --- | --- | --- | --- | --- | --- | --- | --- | --- |
| CNc1ccccc1C(=O)O[C@@H]1[C@@H](C)[C@@]2(O)[C@@H](C=C(CO)C[C@]3(O)C(=O)C(C)=C[C@@H]23)[C@@H]2C(C)(C)[C@]12OC(C)=O [Compound No. 2, Sapintoxin D] | did not induce | did not induce |  |  |  |  |  |  |  |  | IgA induction, secondary screening ([1]; with CD40): induced IgA; also recorded: specifically induce IgA |
| CC(C)[C@H]1C(=O)N[C@H](CO)Cc2c[nH]c3cccc(c23)N1C [Indolactam V] |  |  | produced; also recorded: Only the induction of IgA is shown to occur | not observed | not observed | strong carcinogenicity | scarcely produced | scarcely produced | observed | observed | IgA inducing activity, tertiary screening ([1]; culture supernatant one week later, with CD40, Indolactam V 1-7 μM): very strong; IgA specific class switching, tertiary screening ([1]; triplicate, culture supernatant one week later, with CD40, Indolactam V 1, 3, 3.75, 5, 7 μM): induced IgA specific class switching; also recorded: best effect |
| CCC/C=C/C=C/C(=O)O[C@H]1/C(=C/C(=O)OC)C[C@H]2C[C@H]([C@@H](C)O)OC(=O)C[C@H](O)C[C@@H]3C[C@H](OC(C)=O)C(C)(C)[C@](O)(C[C@@H]4C/C(=C/C(=O)OC)C[C@H](/C=C/C(C)(C)[C@]1(O)O2)O4)O3 [bryostatin 1] |  |  | produced; also recorded: Only the induction of IgA is shown to occur | not observed | not observed | did not show carcinogenicity | scarcely produced | scarcely produced | observed | observed | proliferation of cultured cells, compound alone ([6]; bryostatin 1 alone (Example 5)): scarcely observed; proliferation of cultured cells ([6]; bryostatin 1 stimulation (Example 4)): scarcely observed; cell number on day 7 ([6]; stimulated with bryostatin 1, day 7): extremely small; IgA induction potency compared with Indolactam V ([1]; Example 4, FIG. 6): inferior; specific class switching to IgA (Example 4) ([1]; Example 4, FIGS. 6 and 7): induces specific class switching to IgA; IgA antibody titer on day 5 compared to the negative control (0.02% DMSO+CD40) ([1]; bryostatin 1 1, 5, 10 nM, with CD40, day 5): increased significantly; IgA antibody titer on day 7 ([1]; bryostatin 1 1, 5, 10 nM, with CD40, day 7): low; expression of alpha germline transcript (RT-PCR), CD40 not added ([4]; without CD40): low; expression of AID (RT-PCR), CD40 not added ([5]; without CD40): low |
| CCCCCCCCCCCCCC(=O)O[C@@H]1[C@@H](C)[C@@]2(O)[C@@H](C=C(CO)C[C@]3(O)C(=O)C(C)=C[C@@H]23)[C@@H]2C(C)(C)[C@]12OC(C)=O [compound 12, phorbol 12-myristate 13-acetate] | did not induce | did not induce |  |  |  |  |  |  |  |  | IgA induction, secondary screening ([1]; with CD40, listed as No. 12): induced IgA; also recorded: specifically induce IgA |
| Resiniferonol-9,13,14-orthophenyl acetate [compound 18] | did not induce | did not induce |  |  |  |  |  |  |  |  | IgA induction, secondary screening ([1]; with CD40, listed as No. 18): induced IgA; also recorded: specifically induce IgA |
